Results published in patent US20050054696A1, “Indole compounds and medicinal use thereof” (priority 2001, published 2005).

Assays:
db/db mice = test: Measurement of plasma glucose concentration in obesity type diabetes model db/db mice; format: in vivo; conditions: Mus musculus, po; plasma glucose 1 and 3 hr after administration, after fasting for 4 hr; significant difference vs solvent group (Dunnett's test); read-out: Minimum effective dose db/db mouse
Protocol: Measurement Method of Plasma Glucose Concentration
Using obesity type diabetes model db/db mice, the effect of the compound (1) of the present invention on glucose concentration in plasma was examined. The glucose concentration in the plasma of db/db mice (10-15 weeks of age) was measured, and the mice were grouped into 5 mice per group such that the average glucose concentration of plasma is leveled. After fasting for 4 hr, the test drug or a solvent (0.5% methyl cellulose) was orally administered to db/db mice, and plasma glucose concentration at 1 and 3 hr after the administration was measured. The hypoglycemic effect of the test drug was evaluated by detecting a significant difference every hour between the solvent administration group and the test drug administration group (Dunnett's test).

[1] = biological target: T1, recombinant human liver glycogen phosphorylase (HLGPa) (Homo sapiens, UniProt P06737); test: Measurement of liver glycogen phosphorylase activity (enzyme inhibitory activity against HLGPa); format: biochemical; conditions: Sf9 cell lysate expressing recombinant enzyme; reverse reaction (glycogen synthesis from G1-P), phosphate by malachite green, 60 min room temperature
T1 construct: made in house; host or cells: Sf9 insect cells (unpurified cell lysate used as enzyme solution)
T1 sequence (P06737 1-847): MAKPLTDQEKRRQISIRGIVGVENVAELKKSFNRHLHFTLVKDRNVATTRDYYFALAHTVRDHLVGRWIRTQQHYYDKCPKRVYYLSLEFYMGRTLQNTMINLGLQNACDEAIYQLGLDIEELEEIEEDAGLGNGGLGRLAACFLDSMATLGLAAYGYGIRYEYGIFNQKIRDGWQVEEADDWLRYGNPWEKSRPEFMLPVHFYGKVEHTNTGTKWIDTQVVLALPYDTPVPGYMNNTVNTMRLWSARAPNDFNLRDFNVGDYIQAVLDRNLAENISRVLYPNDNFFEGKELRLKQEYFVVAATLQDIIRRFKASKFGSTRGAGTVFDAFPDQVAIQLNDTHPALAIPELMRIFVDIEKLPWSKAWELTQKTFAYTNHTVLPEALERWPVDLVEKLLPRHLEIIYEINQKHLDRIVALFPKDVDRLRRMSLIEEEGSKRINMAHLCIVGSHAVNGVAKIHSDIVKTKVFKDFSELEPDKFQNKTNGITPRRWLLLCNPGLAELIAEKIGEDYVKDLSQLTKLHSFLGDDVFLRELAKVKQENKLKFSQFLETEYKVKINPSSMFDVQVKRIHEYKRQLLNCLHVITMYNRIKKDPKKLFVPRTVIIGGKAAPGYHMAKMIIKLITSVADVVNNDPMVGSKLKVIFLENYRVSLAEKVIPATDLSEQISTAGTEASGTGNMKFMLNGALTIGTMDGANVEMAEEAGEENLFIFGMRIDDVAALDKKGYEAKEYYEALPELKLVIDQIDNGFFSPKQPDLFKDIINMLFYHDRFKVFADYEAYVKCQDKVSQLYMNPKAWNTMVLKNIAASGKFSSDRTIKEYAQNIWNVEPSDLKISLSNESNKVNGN
Method in brief: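 Activity was run in the reverse, glycogen-synthesis direction, using Sf9 lysate expressing recombinant human liver glycogen phosphorylase (enzyme solution 80 μg/mL protein, pH 7.0). Substrate solution was Tris pH 7.2 with 1.25 mM glucose-1-phosphate, 2.5 mg/ml glycogen and 7.5 mM glucose, reacted 60 min at room temperature. Released phosphate was measured by malachite green A650, with % inhibition taken against DMSO control and no-enzyme blank.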

IC50 [1] [nM] | Compound | minimal effective dose (db/db mice) [mg/kg]
 | O=C(NN1C(=O)NC(c2ccc(F)cc2)C1=O)c1cc2cc(Cl)ccc2[nH]1 (stereo not drawn) [Example 4-16, 5-chloro-1H-indole-2-carboxylic acid (2,5-dioxo-4-(4-fluorophenyl)imidazolidin-1-yl)amide] | 10
85 | O=C(NN1C(=O)N[C@@H](c2ccccc2)C1=O)c1cc2cc(Cl)ccc2[nH]1 (stereo in doubt) [Example 4, N-(2,4-dioxo-5-phenylimidazolidin-3-yl)-5-chloro-1H-indole-2-carboxamide] | 10
62 | Cl.N=C(NNC(=O)c1cc2cc(Cl)ccc2[nH]1)c1ccccc1 [Example 6, 5-chloro-1H-indole-2-carboxylic acid 2-(imino-phenyl-methyl)hydrazide hydrochloride] | 3
40 | Cc1cccc(C(=N)NNC(=O)c2cc3cc(Cl)ccc3[nH]2)c1 [Example 1-134, 5-chloro-1H-indole-2-carboxylic acid 2-(imino-(m-tolyl)-methyl)hydrazide] | 10
24 | Cc1ccc2[nH]c(C(=O)Nn3c(=O)[nH]c4ccccc4c3=O)cc2c1 [Example 2-23, 5-methyl-1H-indole-2-carboxylic acid (1,2,3,4-tetrahydro-2,4-dioxoquinazolin-3-yl)amide] | 3
53 | Cl.N=C(NNC(=O)c1cc2cc(Cl)ccc2[nH]1)c1ccccc1F [Example 6-19, 5-chloro-1H-indole-2-carboxylic acid 2-((2-fluorophenyl)-imino-methyl)hydrazide hydrochloride] | 3
28 | O=C(NNC(=O)c1cc2cc(Cl)ccc2[nH]1)c1c[nH]cn1 [Example 1-81, 1H-imidazole-4-carboxylic acid 2-(5-chloro-1H-indole-2-carbonyl)hydrazide] | 10
13 | Nc1ccccc1C(=O)NNC(=O)c1cc2cc(Cl)ccc2[nH]1 [Example 1-2, 2-Aminobenzoic acid 2-(5-chloro-1H-indole-2-carbonyl)hydrazide] | 10
20 | Cc1ccc(C(=O)NNC(=O)c2cc3cc(Cl)ccc3[nH]2)s1 [Example 1-88, 5-methylthiophene-2-carboxylic acid 2-(5-chloro-1H-indole-2-carbonyl)hydrazide] | 10
80 | CS(=O)(=O)O.N=C(NNC(=O)c1cc2cc(Cl)ccc2[nH]1)c1ccccc1 [Example 6-17, 5-chloro-1H-indole-2-carboxylic acid 2-(imino-phenyl-methyl)hydrazide methanesulfonate] | 3
96 | COc1ccc([C@@H]2NC(=O)N(NC(=O)c3cc4cc(Cl)ccc4[nH]3)C2=O)cc1 [Example 4-19, 5-chloro-1H-indole-2-carboxylic acid ((4S)-2,5-dioxo-4-(4-methoxyphenyl)imidazolidin-1-yl)amide] | 10
37 | O=C(Nn1c(=O)[nH]c2cccc(Cl)c2c1=O)c1cc2cc(Cl)ccc2[nH]1 [Example 2-17, 5-chloro-1H-indole-2-carboxylic acid (5-chloro-1,2,3,4-tetrahydro-2,4-dioxoquinazolin-3-yl)amide] | 10
17 | Cc1ccc2[nH]c(C(=O)Nn3c(=O)[nH]c4cc(F)ccc4c3=O)cc2c1 [Example 2-24, 5-methyl-1H-indole-2-carboxylic acid (7-fluoro-1,2,3,4-tetrahydro-2,4-dioxoquinazolin-3-yl)amide] | 3
 | CS(=O)(=O)O.N=C(Cc1ccccc1)NNC(=O)c1cc2cc(Cl)ccc2[nH]1 [Example 6-21] | 10
65 | O=C(NN1C(=O)N[C@H](c2ccccc2)C1=O)c1cc2cc(Cl)ccc2[nH]1 [Example 4-6, 5-chloro-1H-indole-2-carboxylic acid ((4R)-2,5-dioxo-4-phenylimidazolidin-1-yl)amide] | 10
56 | O=C(NNC(=O)c1cc2sccc2[nH]1)c1cc2cc(Cl)ccc2[nH]1 [Example 1-108, 4H-thieno[3,2-b]pyrrole-5-carboxylic acid 2-(5-chloro-1H-indole-2-carbonyl)hydrazide] | 
28 | Cc1ccc2[nH]c(C(=O)NNC(=O)c3ccc(F)cc3N)cc2c1 [Example 1-63, 2-amino-4-fluorobenzoic acid 2-(5-methyl-1H-indole-2-carbonyl)hydrazide] | 
35 | Nc1ccsc1C(=O)NNC(=O)c1cc2cc(Cl)ccc2[nH]1 [Example 1-101, 3-aminothiophene-2-carboxylic acid 2-(5-chloro-1H-indole-2-carbonyl)hydrazide] | 
110 | CS(=O)(=O)O.N=C(NNC(=O)c1cc2cc(Cl)ccc2[nH]1)c1ccccc1F [Example 6-20, 5-chloro-1H-indole-2-carboxylic acid 2-((2-fluorophenyl)-imino-methyl)hydrazide methanesulfonate] | 3
> 100 | O=C(NN1C(=O)CCNC1=O)c1cc2cc(Cl)ccc2[nH]1 [Example 3, N-(2,4-dioxo-perhydropyrimidin-3-yl)-5-chloro-1H-indole-2-carboxamide] | 10
250 | O=C(Nc1ccccc1C(=O)NNC(=O)c1cc2cc(Cl)ccc2[nH]1)OC(CO)CO [Example 1-75, 1,3-dihydroxy-2-propyl (2-(2-(5-chloro-1H-indole-2-carbonyl)hydrazinocarbonyl)phenyl)carbamate] | 
> 100 | CCc1ccc2[nH]c(C(=O)Nn3c(=O)[nH]c4ccccc4c3=O)cc2c1 [Example 2-25, 5-ethyl-1H-indole-2-carboxylic acid (1,2,3,4-tetrahydro-2,4-dioxoquinazolin-3-yl)amide] | 

Compound | IC50 [1] [nM] | minimal effective dose (db/db mice) [mg/kg]
N=C(NNC(=O)c1cc2cc(Cl)ccc2[nH]1)c1ccccc1Cl.O=C(O)/C=C\C(=O)O [Example 6-18, 5-chloro-1H-indole-2-carboxylic acid 2-((2-chlorophenyl)-imino-methyl)hydrazide butenedioic acid salt] | 49 | 3
